Laboratory results: ChEMBL document CHEMBL4406794, “N-(7-Cyano-6-(4-fluoro-3-(2-(3-(trifluoromethyl)phenyl)acetamido)phenoxy)benzo[d]thiazol-2-yl)cyclopropanecarboxamide (TAK-632) Analogues as Novel Necroptosis Inhibitors by Targeting Receptor-Interacting Protein Kinase 3 (RIPK3): Synthesis, Structure-Activity Relationships, and in Vivo Efficacy” (J Med Chem, 2019)

Columns and labels:
[1] = molecular target: T1, Receptor-interacting serine/threonine-protein kinase 1 (Homo sapiens, UniProt Q13546); experiment: Binding affinity to wild-type human partial length RIPK1 (M1 to K305 residues) expressed in bacterial expression system at 5 uM after 1 hr by quantitative PCR based KINOMEscan assay
T1 sequence (Q13546 whole entry): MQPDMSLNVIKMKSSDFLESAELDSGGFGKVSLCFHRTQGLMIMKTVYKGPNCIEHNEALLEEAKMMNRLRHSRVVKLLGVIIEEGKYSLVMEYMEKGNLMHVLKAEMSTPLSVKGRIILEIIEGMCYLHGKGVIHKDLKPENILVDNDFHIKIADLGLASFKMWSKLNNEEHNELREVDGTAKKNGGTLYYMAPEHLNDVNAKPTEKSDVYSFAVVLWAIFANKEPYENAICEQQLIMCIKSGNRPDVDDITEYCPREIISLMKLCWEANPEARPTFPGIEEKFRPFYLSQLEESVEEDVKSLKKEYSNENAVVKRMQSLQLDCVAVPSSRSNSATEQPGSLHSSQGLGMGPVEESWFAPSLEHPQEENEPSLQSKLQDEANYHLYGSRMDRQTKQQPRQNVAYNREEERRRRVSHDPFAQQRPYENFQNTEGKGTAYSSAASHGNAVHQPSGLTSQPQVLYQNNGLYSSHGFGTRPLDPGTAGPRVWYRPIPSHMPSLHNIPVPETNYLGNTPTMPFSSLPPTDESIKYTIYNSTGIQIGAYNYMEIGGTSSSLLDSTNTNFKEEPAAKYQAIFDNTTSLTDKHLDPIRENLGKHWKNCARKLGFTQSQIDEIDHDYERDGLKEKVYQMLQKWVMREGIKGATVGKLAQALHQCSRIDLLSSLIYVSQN

[2] = molecular target: RAF proto-oncogene serine/threonine-protein kinase (Homo sapiens) (UniProt P04049); experiment: Inhibition of wild-type human partial length RAF1 (I330 to T640 residues) expressed in bacterial expression system assessed as enzyme remaining activity at 1000 nM by Kinomescan method relative to control
RAF proto-oncogene serine/threonine-protein kinase (Homo sapiens), sequence (P04049 whole entry, the tested form may be a part): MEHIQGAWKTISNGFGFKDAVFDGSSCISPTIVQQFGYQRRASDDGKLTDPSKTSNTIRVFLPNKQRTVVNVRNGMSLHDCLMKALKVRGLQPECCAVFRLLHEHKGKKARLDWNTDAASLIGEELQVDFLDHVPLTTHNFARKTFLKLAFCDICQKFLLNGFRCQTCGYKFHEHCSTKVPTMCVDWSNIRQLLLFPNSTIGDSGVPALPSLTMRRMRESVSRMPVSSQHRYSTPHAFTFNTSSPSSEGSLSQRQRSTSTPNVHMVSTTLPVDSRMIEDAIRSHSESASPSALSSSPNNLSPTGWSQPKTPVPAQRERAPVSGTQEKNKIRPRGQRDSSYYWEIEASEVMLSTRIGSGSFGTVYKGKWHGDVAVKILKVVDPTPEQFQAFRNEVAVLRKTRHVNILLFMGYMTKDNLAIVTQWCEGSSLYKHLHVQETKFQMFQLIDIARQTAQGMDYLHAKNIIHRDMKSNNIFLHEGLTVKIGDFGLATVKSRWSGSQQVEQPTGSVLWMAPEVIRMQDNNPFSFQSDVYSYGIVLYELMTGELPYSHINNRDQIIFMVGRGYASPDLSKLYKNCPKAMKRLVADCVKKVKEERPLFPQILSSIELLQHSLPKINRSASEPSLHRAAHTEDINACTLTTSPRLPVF

[3] = molecular target: Glycogen synthase kinase-3 beta (Homo sapiens) (UniProt P49841); experiment: Inhibition of wild-type human full length GSK3B (M1 to T433 residues) expressed in mammalian expression system assessed as enzyme remaining activity at 1000 nM by Kinomescan method relative to control
Glycogen synthase kinase-3 beta (Homo sapiens), sequence (P49841 whole entry, looked up, the tested form may be a part): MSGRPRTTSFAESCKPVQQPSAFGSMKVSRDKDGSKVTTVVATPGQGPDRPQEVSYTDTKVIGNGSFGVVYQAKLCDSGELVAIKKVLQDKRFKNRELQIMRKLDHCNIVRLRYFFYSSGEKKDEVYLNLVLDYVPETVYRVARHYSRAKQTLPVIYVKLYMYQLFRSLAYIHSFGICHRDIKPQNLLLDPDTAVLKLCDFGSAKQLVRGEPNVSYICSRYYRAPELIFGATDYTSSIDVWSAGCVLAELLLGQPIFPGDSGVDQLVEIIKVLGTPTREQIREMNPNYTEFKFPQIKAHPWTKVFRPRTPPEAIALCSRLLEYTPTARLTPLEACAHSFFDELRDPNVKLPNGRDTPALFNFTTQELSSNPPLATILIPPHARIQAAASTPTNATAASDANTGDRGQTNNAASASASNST

With `O=C(Nc1cccc(Br)c1)Nc1cc(Oc2ccc3nc(NC(=O)C4CC4)sc3c2)ccc1F` the Activity [1] was “Not Active”, the Activity [2] was 13% and the Activity [3] was 100%.
